Legend:
[1] = target: Cyclin-dependent kinase-like 3 (Homo sapiens) (UniProt Q8IVW4)
[2] = target: High affinity nerve growth factor receptor (Homo sapiens) (UniProt P04629); conditions: Compound concentration 1.0 uM
[3] = target: MAP kinase-activated protein kinase 2 (Homo sapiens) (UniProt P49137); test: MAPKAPK2 Invitrogen kinase activity assay; conditions: Compound concentration 1.0 uM
[4] = target: T1, Dual specificity protein kinase CLK1 (Homo sapiens, UniProt P49759); test: CLK1 Invitrogen kinase activity assay
[5] = target: Sodium-dependent dopamine transporter (Homo sapiens) (UniProt Q01959); conditions: Compound concentration 10.0 uM
[6] = target: cAMP-dependent protein kinase catalytic subunit alpha (Homo sapiens) (UniProt P17612); test: PKACa Invitrogen kinase activity assay; conditions: Compound concentration 1.0 uM
[7] = target: T2, Serine/threonine-protein kinase 3 (Homo sapiens) (UniProt Q13188); test: MST2 Invitrogen kinase activity assay; conditions: Compound concentration 1.0 uM
T2 sequence (whole entry): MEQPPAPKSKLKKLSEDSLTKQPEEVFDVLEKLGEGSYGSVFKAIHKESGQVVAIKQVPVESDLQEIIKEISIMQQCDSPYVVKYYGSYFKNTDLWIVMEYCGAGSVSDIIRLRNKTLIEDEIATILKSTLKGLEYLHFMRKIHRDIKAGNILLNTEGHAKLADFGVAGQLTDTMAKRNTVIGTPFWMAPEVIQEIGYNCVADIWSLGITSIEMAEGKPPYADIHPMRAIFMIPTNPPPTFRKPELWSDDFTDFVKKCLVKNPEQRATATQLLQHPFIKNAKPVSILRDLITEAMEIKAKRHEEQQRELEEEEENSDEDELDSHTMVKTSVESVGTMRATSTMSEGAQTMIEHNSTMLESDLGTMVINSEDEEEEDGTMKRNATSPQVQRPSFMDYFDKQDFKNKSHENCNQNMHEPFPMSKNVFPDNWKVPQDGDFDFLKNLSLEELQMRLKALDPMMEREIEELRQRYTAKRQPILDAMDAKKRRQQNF

[8] = target: Mitogen-activated protein kinase 1 (Homo sapiens) (UniProt P28482); test: MAPK1/ERK2 Invitrogen kinase activity assay; conditions: Compound concentration 1.0 uM
[9] = target: Mitogen-activated protein kinase kinase kinase 9 (Homo sapiens, UniProt P80192); test: MAP3K9 Invitrogen kinase activity assay
[10] = target: Glycogen synthase kinase-3 beta (Homo sapiens, UniProt P49841); test: GSK3beta Invitrogen kinase activity assay
[11] = target: T1, Dual specificity protein kinase CLK1
Target sequence in this assay (P49759 whole entry, looked up): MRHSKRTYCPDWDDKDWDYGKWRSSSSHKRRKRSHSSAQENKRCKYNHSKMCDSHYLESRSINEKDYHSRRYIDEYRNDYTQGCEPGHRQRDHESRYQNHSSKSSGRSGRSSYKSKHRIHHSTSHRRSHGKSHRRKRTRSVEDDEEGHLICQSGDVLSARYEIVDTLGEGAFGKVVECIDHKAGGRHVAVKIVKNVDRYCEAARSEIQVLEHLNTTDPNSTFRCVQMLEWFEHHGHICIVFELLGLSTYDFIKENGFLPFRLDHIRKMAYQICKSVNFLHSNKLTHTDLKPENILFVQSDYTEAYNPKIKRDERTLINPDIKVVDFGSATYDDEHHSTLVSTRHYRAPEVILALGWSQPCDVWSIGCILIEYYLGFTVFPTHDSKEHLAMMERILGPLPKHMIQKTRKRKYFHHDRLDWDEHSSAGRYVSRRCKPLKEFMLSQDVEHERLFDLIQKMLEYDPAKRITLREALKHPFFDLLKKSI

[12] = target: 5-hydroxytryptamine receptor 1E (Homo sapiens) (UniProt P28566); conditions: Compound concentration 10.0 uM
[13] = target: Hepatocyte growth factor receptor (Homo sapiens) (UniProt P08581); test: MET Invitrogen kinase activity assay; conditions: Compound concentration 1.0 uM
[14] = target: Mitogen-activated protein kinase kinase kinase kinase 4 (Homo sapiens) (UniProt O95819); test: MAP4K4 Invitrogen kinase activity assay; conditions: Compound concentration 1.0 uM
[15] = target: Myosin light chain kinase 2, skeletal/cardiac muscle (Homo sapiens) (UniProt Q9H1R3); test: MYLK2 Invitrogen kinase activity assay; conditions: Compound concentration 1.0 uM
[16] = target: Ephrin type-A receptor 2 (Homo sapiens) (UniProt P29317); test: ECK Invitrogen kinase activity assay; conditions: Compound concentration 1.0 uM
[17] = target: Serine/threonine-protein kinase pim-2 (Homo sapiens) (UniProt Q9P1W9); test: PIM2 Invitrogen kinase activity assay; conditions: Compound concentration 1.0 uM
[18] = target: Tyrosine-protein kinase JAK3 (Homo sapiens, UniProt P52333); test: JAK3 Invitrogen kinase activity assay
[19] = target: Dual specificity mitogen-activated protein kinase kinase 6 (Homo sapiens) (UniProt P52564)
[20] = target: Tyrosine-protein kinase BTK (Homo sapiens) (UniProt Q06187); test: BTK Invitrogen kinase activity assay; conditions: Compound concentration 1.0 uM
[21] = target: Mitogen-activated protein kinase 14 (Homo sapiens) (UniProt Q16539); test: SAPK2A/p38 Invitrogen kinase activity assay; conditions: Compound concentration 1.0 uM
Aurora kinase A = Aurora kinase A (Homo sapiens, UniProt O14965); test: (§1) Aurora-A Invitrogen kinase activity assay
[22] = target: T3, Aurora kinase A (Homo sapiens) (UniProt O14965); test: as §1; conditions: Compound concentration 1.0 uM
T3 sequence (whole entry): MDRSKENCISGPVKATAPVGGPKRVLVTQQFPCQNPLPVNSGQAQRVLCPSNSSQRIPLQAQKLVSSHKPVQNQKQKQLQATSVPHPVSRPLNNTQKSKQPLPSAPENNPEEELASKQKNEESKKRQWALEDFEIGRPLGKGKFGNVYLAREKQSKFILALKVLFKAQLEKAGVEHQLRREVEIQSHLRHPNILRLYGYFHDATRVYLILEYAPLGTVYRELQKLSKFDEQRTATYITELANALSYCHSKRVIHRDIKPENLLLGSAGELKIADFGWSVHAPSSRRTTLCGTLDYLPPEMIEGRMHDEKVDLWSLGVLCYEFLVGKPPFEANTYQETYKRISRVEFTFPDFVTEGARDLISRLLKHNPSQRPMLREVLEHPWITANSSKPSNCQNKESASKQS

[23] = target: Fibroblast growth factor receptor 1 (Homo sapiens) (UniProt P11362); test: FGFR1 Invitrogen kinase activity assay; conditions: Compound concentration 1.0 uM
[24] = target: Proto-oncogene tyrosine-protein kinase Src (Homo sapiens, UniProt P12931); test: SRC Invitrogen kinase activity assay
[25] = target: RAC-alpha serine/threonine-protein kinase (Homo sapiens) (UniProt P31749); test: AKT1 Invitrogen kinase activity assay; conditions: Compound concentration 1.0 uM
[26] = test system: Tyrosine-protein kinase ABL1 (Homo sapiens), P00519 [Q252H]
[27] = target: 5-hydroxytryptamine receptor 1D (Homo sapiens) (UniProt P28221); conditions: Compound concentration 10.0 uM
[28] = target: Beta-2 adrenergic receptor (Homo sapiens) (UniProt P07550); conditions: Compound concentration 10.0 uM
[29] = target: D(2) dopamine receptor (Homo sapiens) (UniProt P14416); conditions: Compound concentration 10.0 uM
Focal adhesion kinase 1 = Focal adhesion kinase 1 (Homo sapiens, UniProt Q05397); test: Binding assay (PTK2)
[30] = Compound concentration 100.0 nM
[31] = Compound concentration 1000.0 nM

Cyclin-dependent kinase-like 3 (Homo sapiens), sequence (Q8IVW4 whole entry, looked up): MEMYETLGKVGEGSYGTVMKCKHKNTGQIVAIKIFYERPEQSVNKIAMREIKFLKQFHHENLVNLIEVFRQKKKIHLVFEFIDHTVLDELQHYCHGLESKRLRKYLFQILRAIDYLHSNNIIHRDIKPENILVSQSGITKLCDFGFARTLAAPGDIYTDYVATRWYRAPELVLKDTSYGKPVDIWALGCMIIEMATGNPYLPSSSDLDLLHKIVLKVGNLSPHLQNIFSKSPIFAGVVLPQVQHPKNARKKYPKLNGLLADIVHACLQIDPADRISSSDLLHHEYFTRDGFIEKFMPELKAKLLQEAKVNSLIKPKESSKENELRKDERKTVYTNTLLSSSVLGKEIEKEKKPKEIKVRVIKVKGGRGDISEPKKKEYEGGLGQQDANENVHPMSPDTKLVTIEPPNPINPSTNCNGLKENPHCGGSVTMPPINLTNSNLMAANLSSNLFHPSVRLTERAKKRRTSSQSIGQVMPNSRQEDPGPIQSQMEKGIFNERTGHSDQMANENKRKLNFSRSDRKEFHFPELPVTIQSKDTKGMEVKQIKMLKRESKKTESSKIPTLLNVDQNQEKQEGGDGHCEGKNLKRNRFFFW
Dual specificity mitogen-activated protein kinase kinase 6 (Homo sapiens), sequence (P52564 whole entry): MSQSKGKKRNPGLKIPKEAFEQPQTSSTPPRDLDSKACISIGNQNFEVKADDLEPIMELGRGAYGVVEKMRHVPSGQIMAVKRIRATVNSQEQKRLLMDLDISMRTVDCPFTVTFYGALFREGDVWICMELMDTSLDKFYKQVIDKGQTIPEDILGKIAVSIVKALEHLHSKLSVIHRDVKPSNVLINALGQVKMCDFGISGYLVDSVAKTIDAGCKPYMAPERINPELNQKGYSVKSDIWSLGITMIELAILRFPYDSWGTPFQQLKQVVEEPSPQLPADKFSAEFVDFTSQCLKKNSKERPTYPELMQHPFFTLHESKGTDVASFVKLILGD
Proto-oncogene tyrosine-protein kinase Src, sequence (P12931 2-536 limits assumed): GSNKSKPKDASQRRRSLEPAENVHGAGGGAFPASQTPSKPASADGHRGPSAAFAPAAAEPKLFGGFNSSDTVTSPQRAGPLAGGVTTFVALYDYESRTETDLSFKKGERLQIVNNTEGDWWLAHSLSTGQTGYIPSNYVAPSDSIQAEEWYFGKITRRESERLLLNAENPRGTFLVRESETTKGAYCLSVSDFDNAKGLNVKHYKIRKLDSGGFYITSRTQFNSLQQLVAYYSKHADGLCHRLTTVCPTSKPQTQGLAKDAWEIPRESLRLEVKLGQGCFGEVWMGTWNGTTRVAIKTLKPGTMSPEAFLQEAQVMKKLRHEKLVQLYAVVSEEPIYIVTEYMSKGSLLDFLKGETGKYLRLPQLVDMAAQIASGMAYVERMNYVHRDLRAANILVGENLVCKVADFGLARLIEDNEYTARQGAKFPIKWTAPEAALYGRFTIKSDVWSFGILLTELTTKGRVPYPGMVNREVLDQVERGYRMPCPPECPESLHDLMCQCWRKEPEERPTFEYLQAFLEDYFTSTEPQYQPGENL
Tyrosine-protein kinase JAK3, sequence (P52333 whole entry): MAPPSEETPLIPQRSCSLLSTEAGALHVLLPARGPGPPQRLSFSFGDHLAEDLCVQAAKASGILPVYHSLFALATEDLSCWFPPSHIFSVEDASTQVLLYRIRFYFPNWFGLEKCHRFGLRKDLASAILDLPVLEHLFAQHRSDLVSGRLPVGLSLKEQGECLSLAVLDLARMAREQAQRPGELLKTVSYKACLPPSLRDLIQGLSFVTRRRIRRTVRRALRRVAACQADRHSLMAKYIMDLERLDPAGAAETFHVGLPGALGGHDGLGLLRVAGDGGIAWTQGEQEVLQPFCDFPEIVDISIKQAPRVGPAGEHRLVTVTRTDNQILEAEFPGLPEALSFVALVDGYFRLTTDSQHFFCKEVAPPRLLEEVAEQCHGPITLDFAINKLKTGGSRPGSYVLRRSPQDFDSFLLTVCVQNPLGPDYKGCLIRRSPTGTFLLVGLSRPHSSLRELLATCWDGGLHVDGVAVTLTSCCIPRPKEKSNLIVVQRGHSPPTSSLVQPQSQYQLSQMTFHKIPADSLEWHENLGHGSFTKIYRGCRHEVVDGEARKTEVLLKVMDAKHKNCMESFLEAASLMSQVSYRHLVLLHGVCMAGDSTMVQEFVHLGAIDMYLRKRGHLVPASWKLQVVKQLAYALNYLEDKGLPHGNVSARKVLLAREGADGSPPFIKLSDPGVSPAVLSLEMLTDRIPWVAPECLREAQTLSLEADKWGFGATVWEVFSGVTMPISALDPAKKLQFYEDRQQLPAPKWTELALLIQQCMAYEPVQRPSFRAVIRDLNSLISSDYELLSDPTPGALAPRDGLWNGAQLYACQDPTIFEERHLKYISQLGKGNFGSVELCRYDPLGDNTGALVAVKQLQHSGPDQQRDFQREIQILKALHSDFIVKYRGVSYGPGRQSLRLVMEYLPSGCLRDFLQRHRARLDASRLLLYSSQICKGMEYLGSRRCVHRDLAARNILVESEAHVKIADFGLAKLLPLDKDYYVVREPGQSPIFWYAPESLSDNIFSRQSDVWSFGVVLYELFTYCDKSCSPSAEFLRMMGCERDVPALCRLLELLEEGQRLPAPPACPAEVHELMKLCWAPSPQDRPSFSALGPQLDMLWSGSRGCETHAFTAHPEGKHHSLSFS
Beta-2 adrenergic receptor (Homo sapiens), sequence (P07550 whole entry, looked up): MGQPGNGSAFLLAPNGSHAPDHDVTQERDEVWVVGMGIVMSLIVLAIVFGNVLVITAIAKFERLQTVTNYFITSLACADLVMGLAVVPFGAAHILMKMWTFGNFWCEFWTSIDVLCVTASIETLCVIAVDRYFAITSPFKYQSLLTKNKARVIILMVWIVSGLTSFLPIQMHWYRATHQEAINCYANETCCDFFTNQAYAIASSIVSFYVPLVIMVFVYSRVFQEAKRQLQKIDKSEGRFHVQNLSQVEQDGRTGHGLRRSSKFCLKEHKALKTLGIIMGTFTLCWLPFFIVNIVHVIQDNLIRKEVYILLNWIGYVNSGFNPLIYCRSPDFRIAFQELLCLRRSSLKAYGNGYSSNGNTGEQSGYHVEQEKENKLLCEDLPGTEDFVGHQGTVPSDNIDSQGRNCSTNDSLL
Ephrin type-A receptor 2 (Homo sapiens), sequence (P29317 whole entry): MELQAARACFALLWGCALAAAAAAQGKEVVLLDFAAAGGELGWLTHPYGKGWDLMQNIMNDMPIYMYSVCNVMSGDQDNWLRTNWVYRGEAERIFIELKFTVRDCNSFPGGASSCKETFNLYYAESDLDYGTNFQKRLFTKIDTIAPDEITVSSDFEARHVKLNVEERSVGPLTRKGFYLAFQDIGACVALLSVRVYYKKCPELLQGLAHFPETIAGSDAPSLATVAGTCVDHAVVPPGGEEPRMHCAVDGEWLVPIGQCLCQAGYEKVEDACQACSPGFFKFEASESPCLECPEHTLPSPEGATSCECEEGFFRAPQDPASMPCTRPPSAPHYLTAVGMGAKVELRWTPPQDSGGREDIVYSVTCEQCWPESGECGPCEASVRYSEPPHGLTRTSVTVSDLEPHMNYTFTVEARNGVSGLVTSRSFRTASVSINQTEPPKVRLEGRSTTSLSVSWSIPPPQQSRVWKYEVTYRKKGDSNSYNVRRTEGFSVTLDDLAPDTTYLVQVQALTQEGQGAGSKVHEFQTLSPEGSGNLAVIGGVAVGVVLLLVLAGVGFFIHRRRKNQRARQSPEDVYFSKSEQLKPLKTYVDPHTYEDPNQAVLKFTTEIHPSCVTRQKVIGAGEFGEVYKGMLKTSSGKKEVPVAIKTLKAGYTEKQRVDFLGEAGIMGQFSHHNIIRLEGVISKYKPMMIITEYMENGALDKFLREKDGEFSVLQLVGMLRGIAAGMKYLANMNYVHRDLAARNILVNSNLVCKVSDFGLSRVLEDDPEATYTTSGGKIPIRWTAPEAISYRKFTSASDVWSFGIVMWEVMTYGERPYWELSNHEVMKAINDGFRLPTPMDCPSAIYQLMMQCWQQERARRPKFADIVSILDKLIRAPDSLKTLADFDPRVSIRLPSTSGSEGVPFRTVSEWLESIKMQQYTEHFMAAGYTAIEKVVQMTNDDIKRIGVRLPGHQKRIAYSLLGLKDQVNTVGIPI
Serine/threonine-protein kinase pim-2 (Homo sapiens), sequence (Q9P1W9 whole entry, looked up): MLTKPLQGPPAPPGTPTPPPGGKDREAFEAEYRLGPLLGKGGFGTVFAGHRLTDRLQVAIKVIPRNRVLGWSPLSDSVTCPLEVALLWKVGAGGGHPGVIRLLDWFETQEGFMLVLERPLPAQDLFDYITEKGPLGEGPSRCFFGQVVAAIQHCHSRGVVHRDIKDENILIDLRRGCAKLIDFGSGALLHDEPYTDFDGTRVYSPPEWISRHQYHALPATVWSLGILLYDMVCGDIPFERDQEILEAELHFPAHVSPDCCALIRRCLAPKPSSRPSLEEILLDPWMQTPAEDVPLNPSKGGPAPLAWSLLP

Molecule `CNC(=O)c1ccc(Nc2ncc(C(F)(F)F)c(NCc3nccnc3N(C)S(C)(=O)=O)n2)cc1` [DEFACTINIB] has a residual activity [1, 30] of 92%, an inhibition [2] of 97% and an inhibition [3] of 2%. It also gave an IC50 [4] of 250 nM, an inhibition ([4]; Compound concentration 1.0 uM) of 99% and an inhibition [5] of -6.06%. The inhibition [6] was 29%, the inhibition [7] was 60% and the inhibition [8] was 35%. For the same molecule, the IC50 [9] was 75.3 nM, the inhibition ([9]; Compound concentration 1.0 uM) was 98% and the IC50 [10] was 416 nM. It also gave an inhibition ([10]; Compound concentration 1.0 uM) of 83%, a residual activity [11, 30] of 23% and an inhibition [12] of 18.2%. It also gave an inhibition [13] of 54%, an inhibition [14] of 28% and an inhibition [15] of 8%. The inhibition [16] was 18%, the inhibition [17] was 0% and the IC50 [18] was greater than 1000 nM. The residual activity [19, 30] was 77%, the inhibition [20] was 14% and the inhibition [21] was 1%. For the same molecule, the IC50 (Aurora kinase A) was 135 nM, the inhibition [22] was 87% and the inhibition [23] was 64%. For the same molecule, the IC50 [24] was greater than 1000 nM, the inhibition ([24]; Compound concentration 1.0 uM) was 58% and the inhibition [25] was 4%. For the same molecule, the residual activity [26, 30] was 98%.

For `CN(c1ccnc(CNc2nc(Nc3ccc4c(c3)CC(=O)N4)ncc2C(F)(F)F)n1)S(C)(=O)=O` [PF-00911705], the residual activity [1, 31] was 78%, the inhibition [27] was 0.19% and the residual activity [11, 31] was 4.4%. The inhibition [28] was 15.3%, the inhibition [29] was 9.12% and the IC50 (Focal adhesion kinase 1) was 721 nM (not active). For the same molecule, the residual activity [19, 31] was 83% and the residual activity [26, 31] was 94%.
